Laboratory results from US20210113496A1, “Methods of Treating Excitotoxicity Disorders” (HORIZON ORPHAN LLC, priority 2018, published 2021).

Legend:
[1] = system: ST HDH Q111/111 striatal cells; test: Permeability/Cell Death assay based on CellTox Green (membrane integrity)
Method: (§1) All cell culture methods were carried out under sterile conditions in a class II laminar flow cabinet. The immortalized cell lines, ST HDH Q111/111 and ST HDH Q7/7 were derived from striatal neurons from HdhQ111/Q111 and HdhQ7/Q7 mice (expressing 111 and 7 glutamine repeats, respectively) and were purchased from Coriell. Cells were cultured in Dulbecco's Modified Eagle Medium (DMEM) supplemented with 10% FBS, 4 mM L-alanyl-L-glutamine (Corning Glutagro), and 400 μg/mL G418. Cells were grown at 33° C. in a 5% CO2 incubator. All experiments used cells with passages lower than 14.
(§2) Cells were plated at a density of 8×10^3 or 1.2×10^3 cells/well (CellTox or XTT, respectively) in sterile 96 well plates (100 uL). Cells were allowed to adhere overnight at 33° C. in a 5% CO2 incubator. Test compounds were applied and left to incubate for an additional 24 hours. Membrane integrity was assessed by staining with CellTox Green (Promega) reagent following manufacturer guidelines for the Endpoint (2×) Method. Viability was assessed using an XTT Cell Proliferation Kit (ATCC). Before adding XTT reagent, wells were aspirated and washed with serum free media. 50 uL of XTT reagent and 100 uL serum free media were then added to each well and incubated for 2-4 hours before acquiring data. […]

HDH Q111/111 cells = test: XTT Cell Proliferation assay (viability); conditions: FIGS. 2A and 2B
Method: as §1, §2

striatal cells = test: Live cell count after 24 or 48 hours of culture with glutamate (Cellometer); assay type: cell-based, mice; conditions: cells cultured with glutamate, cysteamine administered 24 hours later; FIG. 3
Method: All experiments used cells with passages lower than 14. Cells were seeded into sterile 12 well plates at an appropriate density (80-120 k cells/well) to reach 50-75% confluence after 24 hours. […] Thereafter, wells were treated with test compounds. Following incubation with the compounds for 24 or 48 hours, wells were rinsed with DPBS, and detached using 500 uL Accutase (EMD). Pellets were rinsed and re-suspended in 250 uL DPBS and live cells were counted on a Cellometer Auto 2000.

| SMILES | number of dead cells (CellTox Green) ([1]; HDH cells cultured with cysteamine and BSO, compared to BSO alone) | sensitivity of cells to toxicity induced by glutamate and/or the test agents ([1]; cysteamine in combination with GFPB (5 mM), and NMDA (500 uM)+4CPG (250 uM) or BSO (250 uM), FIG. 1B) | rescue of glutamate-induced excitotoxicity (XTT Cell Proliferation) (HDH Q111/111 cells; cysteamine 25 μM in culture with glutamate) | rescue of glutamate-induced excitotoxicity (XTT Cell Proliferation) (HDH Q111/111 cells; cysteamine 75 μM in culture with glutamate) | cell viability (striatal cells) | cytotoxicity (Cell Tox Green) ([1]; 5 mM glutamate given alone, 24 hours, FIG. 1A) | glutamate excitotoxicity (XTT Cell Proliferation) (HDH Q111/111 cells; glutamate in culture, HDH Q111/111 cells) |
| --- | --- | --- | --- | --- | --- | --- | --- |
| NCCS [cysteamine, 2-aminoethanethiol] | reduced the number of dead cells | able to reduce sensitivity of cells to toxicity | able to rescue glutamate-induced excitotoxicity | able to rescue glutamate-induced excitotoxicity | positive effects of cysteamine on the cell viability was still observed |  |  |
| N[C@@H](CCC(=O)O)C(=O)O [glutamate, L-Glutamic acid] |  |  |  |  |  | toxic to cells | experience glutamate excitotoxicity |
